From US20180289678A1, “PHARMACEUTICAL COMPOSITION, PHARMACEUTICAL DOSAGE FORM, PROCESS FOR THEIR PREPARATION, METHODS FOR TREATING AND USES THEREOF” (Boehringer Ingelheim International GmbH, priority 2009, published 2018)
Read-outs that look alike come from different tables or passages of the source.

Assay: Study .2: multiple rising dose trial in diabetic patients, once daily for 8 days, pharmacokinetic parameters
Assay type: in vivo, human
Conditions: for AUCτ,ss,norm Max / AUCτ,ss,norm Median / AUCτ,ss,norm Min / AUCτ,ss,norm gMean / Cmax,ss,norm Max / Cmax,ss,norm Median / Cmax,ss,norm Min / Cmax,ss,norm gMean: Study .2, steady state, dose-normalized
Protocol: 5. Pharmacokinetic Parameters
The pharmacokinetic parameters of pharmaceutical compositions and pharmaceutical dosage forms are assessed in healthy volunteer and patient populations. In the studies shown below, the participants fasted on the day of sampling, unless as otherwise stated (see for example study .3). The active substance in the studies below is the compound (I.9), preferably in the crystalline form (I.9X), and the dose of active ingredient is indicated in mg.
For the quantification of plasma concentrations of the active ingredient, 2.7 mL of blood was collected and transferred into an EDTA (ethylendiaminetetraacetic acid)-anticoagulant blood drawing tube. The EDTA-anticoagulated blood samples were centrifuged immediately after collection. Centrifugation lasted for about 10 minutes (at about 2,000×gf to 4,000×gf) at 4-8° C. or within 30 minutes while stored on ice. Concentrations of active substance in EDTA human plasma samples were quantitated using a HPLC/MS/MS method. The assay method comprised a solid phase supported liquid-liquid extraction of human plasma coupled with HPLC/MS/MS determination of the extracted samples. The HPLC/MS/MS assay was validated for the range of 1.11 to 1110 nM in human plasma.
Study .2: Multiple rising dose trial in a diabetic patient population of N=48, once daily administration for 8 days. Patients were administered tablets as described in Example 10 (section Examples of formulations).
AUC0-inf:area under the concentration-time curve of the analyte in plasma over the time interval from 0 extrapolated to infinity.
Cmax: maximum concentration of the analyte in plasma.
Tmax: time from dosing to maximum concentration.
AUCT,SS:area under the concentration-time curve of the analyte in plasma over the time interval from 0 to 24 h at steady-state.
Cmax,ss:maximum concentration of the analyte in plasma at steady state over a uniform dosing interval.
tmax,ss:time from dosing to maximum concentration at steady state.

[1] = 2.5 mg once daily, steady state, Study .2, fasted
[2] = 2.5 mg single dose, Study .2, fasted
[3] = 10 mg once daily, steady state, Study .2, fasted
[4] = 10 mg single dose, Study .2, fasted
[5] = 25 mg once daily, steady state, Study .2, fasted
[6] = 25 mg single dose, Study .2, fasted

## OC[C@H]1O[C@@H](c2ccc(Cl)c(Cc3ccc(O[C@H]4CCOC4)cc3)c2)[C@H](O)[C@@H](O)[C@@H]1O [Compound (I.9), 1-chloro-4-(β-D-glucopyranos-1-yl)-2-[4-((S)-tetrahydrofuran-3-yloxy)-benzyl]-benzene]
[1]
  AUCτ,ss Max: 0.677 µM·h
  AUCτ,ss Mean: 0.471 µM·h
  AUCτ,ss Min: 0.283 µM·h
  tmax,ss Median: 1.50 h
  tmax,ss Min: 0.983 h
2.5 mg once daily, steady state, Study .2, fasted, read-out: Cmax,ss Max
  Cmax: 96.3 nM
2.5 mg once daily, steady state, Study .2, fasted, read-out: Cmax,ss Mean
  Cmax: 68.5 nM
2.5 mg once daily, steady state, Study .2, fasted, read-out: Cmax,ss Min
  Cmax: 40.3 nM
[2]
  AUC0-inf Max: 0.631 µM·h
  AUC0-inf Min: 0.326 µM·h
  AUC0-inf,norm Max: 252 nmol·h/L/mg
  AUC0-inf,norm Median: 200 nmol·h/L/mg
  AUC0-inf,norm Min: 130 nmol·h/L/mg
  AUC0-inf,norm gMean: 187 nmol·h/L/mg
  Cmax,norm Max: 32 nmol/L/mg
  Cmax,norm Median: 25 nmol/L/mg
  Cmax,norm Min: 17 nmol/L/mg
  Cmax,norm gMean: 25 nmol/L/mg
  tmax Max: 1.50 h
  tmax Min: 0.667 h
2.5 mg single dose, Study .2, fasted, read-out: Cmax Max
  Cmax: 81.2 nM
2.5 mg single dose, Study .2, fasted, read-out: Cmax Mean
  Cmax: 62.4 nM
2.5 mg single dose, Study .2, fasted, read-out: Cmax Min
  Cmax: 43.3 nM
[3]
  AUCτ,ss Max: 2.58 µM·h
  AUCτ,ss Mean: 2.03 µM·h
  AUCτ,ss Min: 1.64 µM·h
  tmax,ss Min: 0.983 h
10 mg once daily, steady state, Study .2, fasted, read-out: Cmax,ss Max
  Cmax: 479 nM
10 mg once daily, steady state, Study .2, fasted, read-out: Cmax,ss Mean
  Cmax: 283 nM
10 mg once daily, steady state, Study .2, fasted, read-out: Cmax,ss Min
  Cmax: 172 nM
[4]
  AUC0-inf Max: 2.4 µM·h
  AUC0-inf Min: 1.6 µM·h
  AUC0-inf,norm Max: 240 nmol·h/L/mg
  AUC0-inf,norm Median: 183 nmol·h/L/mg
  AUC0-inf,norm Min: 160 nmol·h/L/mg
  AUC0-inf,norm gMean: 189 nmol·h/L/mg
  Cmax,norm Max: 34 nmol/L/mg
  Cmax,norm Median: 23 nmol/L/mg
  Cmax,norm Min: 16 nmol/L/mg
  Cmax,norm gMean: 24 nmol/L/mg
  tmax Median: 1.50 h
  tmax Min: 0.983 h
10 mg single dose, Study .2, fasted, read-out: Cmax Max
  Cmax: 344 nM
10 mg single dose, Study .2, fasted, read-out: Cmax Mean
  Cmax: 245 nM
10 mg single dose, Study .2, fasted, read-out: Cmax Min
  Cmax: 163 nM
[5]
  AUCτ,ss Max: 6.65 µM·h
  AUCτ,ss Mean: 4.99 µM·h
  AUCτ,ss Min: 3.44 µM·h
  tmax,ss Max: 4.20 h
  tmax,ss Min: 0.667 h
25 mg once daily, steady state, Study .2, fasted, read-out: Cmax,ss Max
  Cmax: 793 nM
25 mg once daily, steady state, Study .2, fasted, read-out: Cmax,ss Mean
  Cmax: 630 nM
25 mg once daily, steady state, Study .2, fasted, read-out: Cmax,ss Min
  Cmax: 443 nM
[6]
  AUC0-inf Max: 6.92 µM·h
  AUC0-inf Min: 3.69 µM·h
  AUC0-inf,norm Max: 277 nmol·h/L/mg
  AUC0-inf,norm Median: 186 nmol·h/L/mg
  AUC0-inf,norm Min: 148 nmol·h/L/mg
  AUC0-inf,norm gMean: 191 nmol·h/L/mg
  Cmax,norm Max: 36 nmol/L/mg
  Cmax,norm Median: 23 nmol/L/mg
  Cmax,norm Min: 17 nmol/L/mg
  Cmax,norm gMean: 24 nmol/L/mg
  tmax Max: 4.00 h
  tmax Min: 0.983 h
25 mg single dose, Study .2, fasted, read-out: Cmax Max
  Cmax: 905 nM
25 mg single dose, Study .2, fasted, read-out: Cmax Mean
  Cmax: 606 nM
25 mg single dose, Study .2, fasted, read-out: Cmax Min
  Cmax: 420 nM
Dose 2.5 mg, plasma
  AUCτ,ss,norm Max: 271 nmol·h/L/mg
  AUCτ,ss,norm Median: 183 nmol·h/L/mg
  AUCτ,ss,norm Min: 113 nmol·h/L/mg
  AUCτ,ss,norm gMean: 184 nmol·h/L/mg
  Cmax,ss,norm Max: 39 nmol/L/mg
  Cmax,ss,norm Median: 29 nmol/L/mg
  Cmax,ss,norm Min: 16 nmol/L/mg
  Cmax,ss,norm gMean: 27 nmol/L/mg
Dose 10 mg, plasma
  AUCτ,ss,norm Max: 258 nmol·h/L/mg
  AUCτ,ss,norm Median: 194 nmol·h/L/mg
  AUCτ,ss,norm Min: 164 nmol·h/L/mg
  AUCτ,ss,norm gMean: 200 nmol·h/L/mg
  Cmax,ss,norm Max: 48 nmol/L/mg
  Cmax,ss,norm Median: 28 nmol/L/mg
  Cmax,ss,norm Min: 17 nmol/L/mg
  Cmax,ss,norm gMean: 27 nmol/L/mg
Dose 25 mg, plasma
  AUCτ,ss,norm Max: 266 nmol·h/L/mg
  AUCτ,ss,norm Median: 182 nmol·h/L/mg
  AUCτ,ss,norm Min: 138 nmol·h/L/mg
  AUCτ,ss,norm gMean: 196 nmol·h/L/mg
  Cmax,ss,norm Max: 32 nmol/L/mg
  Cmax,ss,norm Median: 24 nmol/L/mg
  Cmax,ss,norm Min: 18 nmol/L/mg
  Cmax,ss,norm gMean: 25 nmol/L/mg
human, plasma, oral, 2.5 mg, 2.5 mg once daily, steady state, Study .2, fasted, read-out: AUCτ,ss Median
  AUC: 0.458 µM·h
human, plasma, oral, 2.5 mg, 2.5 mg once daily, steady state, Study .2, fasted, read-out: AUCτ,ss gMean
  AUC: 0.46 µM·h
human, plasma, oral, 2.5 mg, 2.5 mg once daily, steady state, Study .2, fasted, read-out: Cmax,ss Median
  Cmax: 72 nM
human, plasma, oral, 2.5 mg, 2.5 mg once daily, steady state, Study .2, fasted, read-out: Cmax,ss gMean
  Cmax: 66.6 nM
human, plasma, oral, 2.5 mg, 2.5 mg once daily, steady state, Study .2, fasted, read-out: tmax,ss Mean
  Tmax: 1.33 h
human, plasma, oral, 2.5 mg, 2.5 mg once daily, steady state, Study .2, fasted, read-out: tmax,ss g Mean
  Tmax: 1.28 h
human, plasma, oral, 2.5 mg, 2.5 mg single dose, Study .2, fasted, read-out: AUC0-inf Mean
  AUC(0-inf): 0.476 µM·h
human, plasma, oral, 2.5 mg, 2.5 mg single dose, Study .2, fasted, read-out: AUC0-inf Median
  AUC(0-inf): 0.501 µM·h
human, plasma, oral, 2.5 mg, 2.5 mg single dose, Study .2, fasted, read-out: AUC0-inf gMean
  AUC(0-inf): 0.468 µM·h
human, plasma, oral, 2.5 mg, 2.5 mg single dose, Study .2, fasted, read-out: Cmax Median
  Cmax: 62.6 nM
human, plasma, oral, 2.5 mg, 2.5 mg single dose, Study .2, fasted, read-out: Cmax gMean
  Cmax: 61.3 nM
human, plasma, oral, 2.5 mg, 2.5 mg single dose, Study .2, fasted, read-out: tmax Mean
  Tmax: 1.41 h
human, plasma, oral, 2.5 mg, 2.5 mg single dose, Study .2, fasted, read-out: tmax Median
  Tmax: 1.5 h
human, plasma, oral, 2.5 mg, 2.5 mg single dose, Study .2, fasted, read-out: tmax gMean
  Tmax: 1.37 h
human, plasma, oral, 10 mg, 10 mg once daily, steady state, Study .2, fasted, read-out: AUCτ,ss Median
  AUC: 1.94 µM·h
human, plasma, oral, 10 mg, 10 mg once daily, steady state, Study .2, fasted, read-out: AUCτ,ss gMean
  AUC: 2 µM·h
human, plasma, oral, 10 mg, 10 mg once daily, steady state, Study .2, fasted, read-out: Cmax,ss Median
  Cmax: 279 nM
human, plasma, oral, 10 mg, 10 mg once daily, steady state, Study .2, fasted, read-out: Cmax,ss gMean
  Cmax: 272 nM
human, plasma, oral, 10 mg, 10 mg once daily, steady state, Study .2, fasted, read-out: tmax,ss Mean
  Tmax: 1.43 h
human, plasma, oral, 10 mg, 10 mg once daily, steady state, Study .2, fasted, read-out: tmax,ss Median
  Tmax: 1.5 h
human, plasma, oral, 10 mg, 10 mg once daily, steady state, Study .2, fasted, read-out: tmax,ss g Mean
  Tmax: 1.4 h
human, plasma, oral, 10 mg, 10 mg single dose, Study .2, fasted, read-out: AUC0-inf Mean
  AUC(0-inf): 1.91 µM·h
human, plasma, oral, 10 mg, 10 mg single dose, Study .2, fasted, read-out: AUC0-inf Median
  AUC(0-inf): 1.83 µM·h
human, plasma, oral, 10 mg, 10 mg single dose, Study .2, fasted, read-out: AUC0-inf gMean
  AUC(0-inf): 1.89 µM·h
human, plasma, oral, 10 mg, 10 mg single dose, Study .2, fasted, read-out: Cmax Median
  Cmax: 233 nM
human, plasma, oral, 10 mg, 10 mg single dose, Study .2, fasted, read-out: Cmax gMean
  Cmax: 240 nM
human, plasma, oral, 10 mg, 10 mg single dose, Study .2, fasted, read-out: tmax Mean
  Tmax: 1.5 h
human, plasma, oral, 10 mg, 10 mg single dose, Study .2, fasted, read-out: tmax gMean
  Tmax: 1.48 h
human, plasma, oral, 25 mg, 25 mg once daily, steady state, Study .2, fasted, read-out: AUCτ,ss Median
  AUC: 4.56 µM·h
human, plasma, oral, 25 mg, 25 mg once daily, steady state, Study .2, fasted, read-out: AUCτ,ss gMean
  AUC: 4.89 µM·h
human, plasma, oral, 25 mg, 25 mg once daily, steady state, Study .2, fasted, read-out: Cmax,ss Median
  Cmax: 603 nM
human, plasma, oral, 25 mg, 25 mg once daily, steady state, Study .2, fasted, read-out: Cmax,ss gMean
  Cmax: 622 nM
human, plasma, oral, 25 mg, 25 mg once daily, steady state, Study .2, fasted, read-out: tmax,ss Mean
  Tmax: 2.26 h
human, plasma, oral, 25 mg, 25 mg once daily, steady state, Study .2, fasted, read-out: tmax,ss g Mean
  Tmax: 1.97 h
human, plasma, oral, 25 mg, 25 mg single dose, Study .2, fasted, read-out: AUC0-inf Mean
  AUC(0-inf): 4.9 µM·h
human, plasma, oral, 25 mg, 25 mg single dose, Study .2, fasted, read-out: AUC0-inf Median
  AUC(0-inf): 4.64 µM·h
human, plasma, oral, 25 mg, 25 mg single dose, Study .2, fasted, read-out: AUC0-inf gMean
  AUC(0-inf): 4.78 µM·h
human, plasma, oral, 25 mg, 25 mg single dose, Study .2, fasted, read-out: Cmax Median
  Cmax: 569 nM
human, plasma, oral, 25 mg, 25 mg single dose, Study .2, fasted, read-out: Cmax gMean
  Cmax: 592 nM
human, plasma, oral, 25 mg, 25 mg single dose, Study .2, fasted, read-out: tmax Mean
  Tmax: 1.72 h
human, plasma, oral, 25 mg, 25 mg single dose, Study .2, fasted, read-out: tmax Median
  Tmax: 1.5 h
human, plasma, oral, 25 mg, 25 mg single dose, Study .2, fasted, read-out: tmax gMean
  Tmax: 1.6 h
